Source: US9708368B2, “Linear peptide antibiotics” (priority 2012, dated 2017)
In brackets after ≈: the same amount, converted by molar mass. Square brackets hold non-standard residues; d marks the D form. Peptide text beside a SMILES is read from it. * marks the point of attachment. boroAla((+)-pinanediol) = C[C@H](N*)B1O[C@@H]2C[C@@H]3C[C@@H](C3(C)C)[C@]2(C)O1; Biphenylcarbonyl(4'-Bu) = CCCCc1ccc(-c2ccc(C(=O)*)cc2)cc1; X1 = C[C@H](N*)B1OC2C[C@@H]3C[C@@H](C3(C)C)[C@]2(C)O1; Benzoyl(4-(4-Cl-Ph)) = O=C(c1ccc(-c2ccc(Cl)cc2)cc1)*; X17 = O=C(/C=C/C=C/C12CC3CC(CC(C3)C1)C2)*; Pro(4S-NH2) = N[C@@H]1CN[C@H](C(=O)O)C1; NMeK = CN[C@@H](CCCCN)C(=O)O; Tle = CC(C)(C)[C@H](N)C(=O)O; X6 = C[C@@H](N*)C(=O)C(N)=O; boroAla = C[C@H](N*)B(O)O; Dab = NCC[C@H](N)C(=O)O; βAla = NCCC(=O)O

Legend:
E. coli SPase = E. coli SPase (Escherichia coli, UniProt P00803); assay: Biochemical SPase activity assay (fluorogenic peptide substrate), E. coli enzyme
[1] = system: Escherichia coli strain MC4100 IMP-4213, which harbors an LptD mutation; details: Method B; E. coli MC4100 IMP-4213 (LptD mutation); 35° C., 22 hours
Protocol: In vitro antimicrobial activity of each compound was determined by measuring minimal inhibitor concentrations (MICs) using the broth micro-dilution technique as approved by the Clinical and Laboratory Standards Institute (CLSI). […] Bacterial inocula were prepared by scraping cells into 1 mL of testing media (cation adjusted Mueller Hinton Broth supplemented with 0.002% v/v Tween-80) and diluting to a final OD600 nm of 0.01.
Test compounds were prepared in DMSO at a concentration of 10 mg/ml. […] Bacterial inocula were added to the two fold serial dilutions of test compounds to a final density of OD OD600 nm of 0.0005 and incubated stationarily at 35° C. for 22 hours, after which the plates were examined visually.

[2] = system: methicillin resistant Staphylococcus aureus (MRSA) strain USA300 (NRS384); details: Method B, 35° C., 22 hours
S. aureus SPase = S. aureus SPase (Staphylococcus aureus, UniProt P0A070); assay: biochemical

| SMILES | IC50 (E. coli SPase) [nM] | MIC (μg/mL) E. coli [1] [µg/mL] | MIC (μg/mL) S. aureus [2] [µg/mL] | IC50 (S. aureus SPase) [nM] |
| --- | --- | --- | --- | --- |
| CCCCc1ccc(-c2ccc(CN3CCC(C(=O)N[C@H](C(=O)N[C@@H](C)C(=O)N[C@@H](CCCCN)C(=O)N[C@@H](C)B4OC5C[C@@H]6C[C@@H](C6(C)C)[C@]5(C)O4)[C@@H](C)O)CC3)cc2)cc1 (stereo partly shown) [Compound 273] | 470 | 8 (≈ 9.34 µM) | 0.088 (≈ 0.103 µM) | 9.8 |
| CCCCc1ccc(-c2ccc(C(=O)N[C@H](CO)C(=O)N[C@H](C)C(=O)NCC(=O)N(C)[C@@H](CCCCN)C(=O)N[C@@H](C)C(=O)N[C@@H](CC(N)=O)C(=O)N[C@@H](C)B3OC4C[C@@H]5C[C@@H](C5(C)C)[C@]4(C)O3)cc2)cc1 (stereo partly shown) [Compound 228] ({Biphenylcarbonyl(4'-Bu)}-[dS][dA]G[NMeK]AN-X1) | 360 | 2.8 (≈ 2.79 µM) | 5.7 (≈ 5.69 µM) | 270 |
| CC(C)C[C@H](NC(=O)[C@H](C)NC(=O)[C@H](CCCCN)NC(=O)[C@H](CCCCN)NC(=O)c1ccc(-c2ccc(Cl)cc2)cc1)C(=O)N[C@@H](C)B1OC2C[C@@H]3C[C@@H](C3(C)C)[C@]2(C)O1 (stereo partly shown) [Compound 145] ({Benzoyl(4-(4-Cl-Ph))}-KKAL-X1) | 39 | 5 (≈ 5.69 µM) | 3.2 (≈ 3.64 µM) | 240 |
| C[C@H](NC(=O)[C@H](CCCCN)NC(=O)[C@H](C)NC(=O)[C@@H](NC(=O)[C@H](CCN)NC(=O)/C=C/C=C/C12CC3CC(CC(C3)C1)C2)[C@@H](C)O)B1O[C@@H]2C[C@@H]3C[C@@H](C3(C)C)[C@]2(C)O1 [Compound 240] (X17-[Dab]TAK-{boroAla((+)-pinanediol)}) | 28 | 4 (≈ 4.77 µM) | 0.71 (≈ 0.847 µM) | 88 |
| CCCCc1ccc(-c2ccc(C(=O)N[C@@H](CCCCN)C(=O)N[C@H](C(=O)N[C@@H](C)C(=O)N[C@@H](CCCCN)C(=O)N[C@@H](C)B3OC4C[C@@H]5C[C@@H](C5(C)C)[C@]4(C)O3)[C@@H](C)O)cc2)cc1 (stereo partly shown) [Compound 132] ({Biphenylcarbonyl(4'-Bu)}-KTAK-X1) | 24 | 1 (≈ 1.13 µM) | 0.21 (≈ 0.236 µM) | 77 |
| CCCCc1ccc(-c2ccc(C(=O)N[C@@H](CCN)C(=O)N[C@@H](CCN)C(=O)N[C@@H](C)C(=O)N[C@@H](CO)C(=O)N[C@@H](C)B3O[C@@H]4C[C@@H]5C[C@@H](C5(C)C)[C@]4(C)O3)cc2)cc1 [Compound 185] ({Biphenylcarbonyl(4'-Bu)}-[Dab][Dab]AS-{boroAla((+)-pinanediol)}) | 41 | 0.71 (≈ 0.868 µM) | 4 (≈ 4.89 µM) | 580 |
| CCCCc1ccc(-c2ccc(C(=O)NCCC(=O)N[C@@H](CCCCN)C(=O)N3CCC[C@H]3C(=O)N[C@@H](C)C(=O)N[C@@H](CC(N)=O)C(=O)N[C@@H](C)B(O)O)cc2)cc1 [Compound 220] ({Biphenylcarbonyl(4'-Bu)-βAla}-KPAN-boroAla) | 36 | 4 (≈ 4.96 µM) | 0.5 (≈ 0.62 µM) | 7 |
| CCCCc1ccc(-c2ccc(C(=O)N[C@@H](CCCCN)C(=O)N[C@H](C(=O)N[C@@H](C)C(=O)N[C@@H](CC(N)=O)C(=O)N[C@@H](C)B(O)O)[C@@H](C)O)cc2)cc1 [Compound 131] ({Biphenylcarbonyl(4'-Bu)}-KTAN-boroAla) | 19 | 0.44 (≈ 0.595 µM) | 0.45 (≈ 0.608 µM) | 98 |
| CCCCc1ccc(-c2ccc(C(=O)N[C@@H](CCCCN)C(=O)N[C@@H](CCCCN)C(=O)N[C@@H](C)C(=O)N[C@@H](CC(N)=O)C(=O)N[C@@H](C)B3O[C@@H]4C[C@@H]5C[C@@H](C5(C)C)[C@]4(C)O3)cc2)cc1 [Compound 134] ({Biphenylcarbonyl(4'-Bu)}-KKAN-{boroAla((+)-pinanediol)}) | 8.7 | 1.4 (≈ 1.55 µM) | 0.87 (≈ 0.966 µM) | 120 |
| CCCCc1ccc(-c2ccc(C(=O)NCCC(=O)N[C@@H](CCCCN)C(=O)N[C@H](C(=O)N[C@@H](C)C(=O)N[C@@H](CCC(=O)O)C(=O)N[C@@H](C)B3OC4C[C@@H]5C[C@@H](C5(C)C)[C@]4(C)O3)[C@@H](C)O)cc2)cc1 (stereo partly shown) [Compound 195] ({Biphenylcarbonyl(4'-Bu)-βAla}-KTAE-X1) | 19 | 32 (≈ 33.3 µM) | 1.2 (≈ 1.25 µM) | 2.6 |
| CCCCc1ccc(-c2ccc(C(=O)NCCC(=O)N[C@@H](CCCCN)C(=O)N[C@@H](CCC(N)=O)C(=O)N[C@@H](C)C(=O)N[C@@H](CCCCN)C(=O)N[C@@H](C)B3OC4C[C@@H]5C[C@@H](C5(C)C)[C@]4(C)O3)cc2)cc1 (stereo partly shown) [Compound 216] ({Biphenylcarbonyl(4'-Bu)-βAla}-KQAK-X1) | 29 | 4 (≈ 4.06 µM) | 0.21 (≈ 0.213 µM) | 4.1 |
| CCCCc1ccc(-c2ccc(C(=O)NCCC(=O)N[C@@H](CCCCN)C(=O)N[C@@H](Cc3ccc(O)cc3)C(=O)N[C@@H](C)C(=O)N[C@@H](CCCCN)C(=O)N[C@@H](C)B(O)O)cc2)cc1 [Compound 215] ({Biphenylcarbonyl(4'-Bu)-βAla}-KYAK-boroAla) | 77 | 4 (≈ 4.51 µM) | 0.5 (≈ 0.564 µM) | 17 |
| C[C@H](NC(=O)[C@H](CC(N)=O)NC(=O)[C@H](C)NC(=O)[C@@H](NC(=O)[C@H](CCCCN)NC(=O)CCNC(=O)c1ccc(-c2ccc(Cl)cc2)cc1)[C@@H](C)O)B1OC2C[C@@H]3C[C@@H](C3(C)C)[C@]2(C)O1 (stereo partly shown) [Compound 201] ({Benzoyl(4-(4-Cl-Ph))-βAla}-KTAN-X1) | 8 | 64 (≈ 69.3 µM) | 4.6 (≈ 4.98 µM) | 1.9 |
| CCCCc1ccc(-c2ccc(C(=O)N3C[C@@H](N)C[C@H]3C(=O)N3CCC[C@H]3C(=O)N[C@@H](C)C(=O)N[C@@H](CCCCN)C(=O)N[C@@H](C)B3OC4C[C@@H]5C[C@@H](C5(C)C)[C@]4(C)O3)cc2)cc1 (stereo partly drawn) [Compound 181] ({Biphenylcarbonyl(4'-Bu)}-[Pro(4S-NH2)]PAK-X1) | 5.4 | 0.5 (≈ 0.576 µM) | 0.4 (≈ 0.461 µM) | 18 |
| CCCCc1ccc(-c2ccc(C(=O)NCCC(=O)N[C@@H](CCCCN)C(=O)N[C@@H](CCCCN)C(=O)N[C@@H](C)C(=O)N[C@@H](CCCCN)C(=O)N[C@@H](C)B3OC4C[C@@H]5C[C@@H](C5(C)C)[C@]4(C)O3)cc2)cc1 (stereo partly shown) [Compound 207] ({Biphenylcarbonyl(4'-Bu)-βAla}-KKAK-X1) | 87 | 2 (≈ 2.03 µM) | 0.099 (≈ 0.1 µM) | 13 |
| CCCCc1ccc(-c2ccc(C(=O)N[C@@H](CCCCN)C(=O)N[C@@H](CCN)C(=O)N[C@@H](C)C(=O)N[C@@H](CC(C)C)C(=O)N[C@@H](C)B(O)O)cc2)cc1 [Compound 161] ({Biphenylcarbonyl(4'-Bu)}-K[Dab]AL-boroAla) | 60 | 0.71 (≈ 0.962 µM) | 0.63 (≈ 0.854 µM) | 300 |
| CCCCc1ccc(-c2ccc(C(=O)NCCC(=O)N[C@@H](CCCCN)C(=O)N[C@@H](CCCCN)C(=O)N[C@@H](C)C(=O)N[C@@H](CCCCN)C(=O)N[C@@H](C)B(O)O)cc2)cc1 [Compound 224] ({Biphenylcarbonyl(4'-Bu)-βAla}-KKAK-boroAla) | 55 | 2.8 (≈ 3.29 µM) | 0.13 (≈ 0.153 µM) | 12 |
| CCCCc1ccc(-c2ccc(C(=O)NCCC(=O)N[C@@H](CCCCN)C(=O)N[C@H](C(=O)N[C@@H](C)C(=O)N[C@@H](CC(N)=O)C(=O)N[C@@H](C)B3OC4C[C@@H]5C[C@@H](C5(C)C)[C@]4(C)O3)C(C)(C)C)cc2)cc1 (stereo partly shown) [Compound 210] ({Biphenylcarbonyl(4'-Bu)-βAla}-K[Tle]AN-X1) | 56 | 4 (≈ 4.18 µM) | 0.71 (≈ 0.742 µM) | 16 |
| CCCCc1ccc(-c2ccc(C(=O)N[C@@H](CCC(=O)O)C(=O)N[C@H](C(=O)N[C@@H](C)C(=O)N[C@@H](CCCCN)C(=O)N[C@@H](C)B(O)O)[C@@H](C)O)cc2)cc1 [Compound 163] ({Biphenylcarbonyl(4'-Bu)}-ETAK-boroAla) | 240 | >64 | 4 (≈ 5.3 µM) | 310 |
| CCCCc1ccc(-c2ccc(C(=O)N[C@@H](CCCCN)C(=O)N[C@@H](CCCCN)C(=O)N[C@@H](C)C(=O)N[C@@H](CC(C)C)C(=O)N[C@H](C)C(=O)C(N)=O)cc2)cc1 [Compound 254] ({Biphenylcarbonyl(4'-Bu)}-KKAL-X6) | 1200 | 11 (≈ 13.9 µM) | 8 (≈ 10.1 µM) | 660 |
| CCCCc1ccc(-c2ccc(C(=O)N[C@@H](Cc3c[nH]c4ccccc34)C(=O)N[C@H](C(=O)N[C@@H](C)C(=O)N[C@@H](CCCCN)C(=O)N[C@@H](C)B3OC4C[C@@H]5C[C@@H](C5(C)C)[C@]4(C)O3)[C@@H](C)O)cc2)cc1 (stereo partly shown) [Compound 138] ({Biphenylcarbonyl(4'-Bu)}-WTAK-X1) | 1000 | >64 | 5 (≈ 5.29 µM) | 1100 |
| CCCCc1ccc(-c2ccc(C(=O)N[C@@H](CCCCN)C(=O)NC(C(=O)N[C@@H](C)C(=O)N[C@@H](CCCCN)C(=O)N[C@@H](C)B(O)O)c3ccc(OC)cc3)cc2)cc1 (stereo partly shown) [Compound 166] | 36 | 0.5 (≈ 0.613 µM) | 0.63 (≈ 0.772 µM) | 350 |
